Measured values reported in patent US20260297136A1, “PEPTIDES WITH LIPOLYTIC, ANTI-LIPOGENIC, ANTIFIBROTIC AND ANTI-INFLAMMATORY ACTIVITY” (FUNDACIÓ HOSPITAL UNIVERSITARI VALL D'HEBRON - INSTITUT DE …, priority 2023, published 2026).

Legend:
LX-2 cells = test: Fibrosis in LX-2 cells: Col1A1 mRNA induced by TGFβ1, Example 2; type: cell-based, human; conditions: 8 μM, 24 h
Method: FIG. 6. Human hepatic stellate cell line LX-2 was treated with vehicle (DMSO) or TGFβ1 (10 ng/ml) in the absence or presence of 8 μM of GP8 or GP9 for 24 h. RNA was extracted and mRNA levels of collagen 1A1 (Col1A1) relative to 18S were measured by RTPCR.
Cell culture reagents were from Life Technologies Inc (Invitrogen SA, Barcelona, Spain). HepG2 hepatoblastoma cells (cat. no. HB-8065; ATCC, LGC Standards SLU, Barcelona, Spain) were maintained in Dulbecco's modified Eagle medium (DMEM) supplemented with 10% fetal bovine serum and antibiotics. HepG2 cells were treated with vehicle or 10 μM of GP4, GP7, GP8 and GP9 for 24 h. LX-2 human hepatic stellate cells (SCC064) were maintained in DMEM supplemented with 2% fetal bovine serum and antibiotics. […]
Total RNA was extracted from HepG2 and LX-2 cells using TRIzol reagent (Invitrogen SA). […] Results were analyzed using the 7000 Sequence Detection System program (Applied Biosystems, Thermo Fisher Scientific, Barcelona, Spain) (Sex Hormone-Binding Globulin Reduction in Metabolic Disorders May Play a Role in NAFLD Development.Saez-Lopez C, Barbosa-Desongles A, Hernandez C, Dyer R A, Innis S M, Simo R, Selva D M. Endocrinology. 2017 Mar. 1; 158(3):545-559. doi: 10.1210/en.2016-1668).

HepG2 cells [1] = test: Hepatic lipogenic key enzymes in HepG2 cells in the presence of 30 mM fructose (2 h), Example 7; type: cell-based, human
Method: FIG. 34. Effects of different peptides and SHBG in reducing hepatic lipogenic key enzymes in the presence of 30 mM fructose. Each bar within each group represents mRNA levels of a key hepatic lipogenic enzyme, from left to right: Acetyl-CoA Carboxylase (ACC), ATP Citrate Lyase (ACLY) and Fatty Acid Synthase (FAS), and a key transcription factor regulating several lipogenic enzymes such as PPARγ (PPARγ).
Cell culture reagents were from Life Technologies Inc (Invitrogen SA, Barcelona, Spain). HepG2 hepatoblastoma cells (cat. no. HB-8065; ATCC, LGC Standards SLU, Barcelona, Spain) were maintained in Dulbecco's modified Eagle medium (DMEM) supplemented with 10% fetal bovine serum and antibiotics.
• HepG2 cells were cultured for 5 day in the absence or presence of 30 mM fructose. Cells cultured in 30 mM fructose were daily treated with vehicle, Telmisartan, Semaglutide or EDL6D. • HepG2 cells were cultured for 24 h in the absence or presence of GP6 (40 μg/ml), GP10 (40 μg/ml), GP11 (40 μg/ml), GP12 (40 μg/ml), GP13 (40 μg/ml) or SHBG (20 nM). • HepG2 cells were cultured in the absence or presence of 30 mM fructose and treated for 2 h with vehicle or GP4 (40 μg/ml), GP6 (40 μg/ml), GP7 (40 μg/ml), GP8 (40 μg/ml), GP9 (40 μg/ml), GP10 (40 μg/ml), GP11 (40 μg/ml), GP12 (40 μg/ml), GP13 (40 μg/ml) or SHBG (20 nM).
(§1) Total RNA was extracted from HepG2 and LX-2 cells using TRIzol reagent (Invitrogen SA). Reverse transcription was performed at 42° C. for 50 minutes using […] of total RNA, 200 U of Superscript II, and an oligo-dT primer and reagents provided by Invitrogen. An aliquot of the reverse transcription product was amplified in a […] reaction using SYBRGreen (Invitrogen SA) with appropriate oligonucleotide primer pairs corresponding to human SHBG, ACC, FAS, ACLY, PPARG, and 18S and mouse ACC, FAS, ACLY, PPARG, Col1A1 and 18S. Results were analyzed using the 7000 Sequence Detection System program (Applied Biosystems, Thermo Fisher Scientific, Barcelona, Spain) (Shez-Lopez et al Endocrinology 2017).

HepG2 cells [2] = test: Hepatic lipogenesis gene expression (ACC, FAS, ACLY mRNA by RTPCR) in HepG2 cells, Example 2; type: cell-based, human; conditions: 10 μM, 24 h, relative to 18S
Method: FIG. 5 Human hepatoblastoma cell line HepG2 was treated with vehicle (DMSO) or 10 μM of GP4, GP7, GP8 or GP9 for 24 h. RNA was extracted and mRNA levels of Acetyl-CoA Carboxylase (ACC), Fatty Acid Synthase (FAS) and ATP-Citrate Lyase (ACLY) relative to 18S were measured by RTPCR.
Cell culture reagents were from Life Technologies Inc (Invitrogen SA, Barcelona, Spain). HepG2 hepatoblastoma cells (cat. no. HB-8065; ATCC, LGC Standards SLU, Barcelona, Spain) were maintained in Dulbecco's modified Eagle medium (DMEM) supplemented with 10% fetal bovine serum and antibiotics. HepG2 cells were treated with vehicle or 10 μM of GP4, GP7, GP8 and GP9 for 24 h. LX-2 human hepatic stellate cells (SCC064) were maintained in DMEM supplemented with 2% fetal bovine serum and antibiotics. For experiments, LX-2 were cultured for 24 h in DMEM 0.2% FBS and treated for 24 h with vehicle or TGFβ1 (20 ng/ml) in the absence or presence of 8 μM of GP4, GP7, GP8 and GP9 for 24 h. At the end of the experiment's cells were harvested for gene expression analysis.
as §1, with “human” for “human SHBG,”, “Col1A1” for “PPARG,”, “(shown in table 7).” for “and mouse ACC, FAS, ACLY, PPARG, Col1A1 and 18S.”, “(Sex Hormone-Binding Globulin Reduction in Metabolic Disorders May Play a Role in NAFLD Development.Saez-Lopez C, Barbosa-Desongles A, Hernandez C, Dyer R A, Innis S M, Simo R, Selva D M. Endocrinology. 2017 Mar. 1; 158(3):545-559. doi: 10.1210/en.2016-1668).” for “(Shez-Lopez et al Endocrinology 2017).”

human mature adipocytes [3] = test: Lipolysis in human mature adipocytes (glycerol production), Example 2; type: cell-based; conditions: 16 h
Method: FIG. 7. Mature human subcutaneous adipocytes were treated with vehicle (DMSO), 3 μM of Isoproterenol or 10 μM of GP4, GP8 or GP9 for 16 h. Glycerol concentration was assessed using a Lipolysis Assay Kit (Tebu-bio). Lipolysis induction was calculated with respect to the control cells treated with DMSO.
(§2) Human preadipocytes and cell culture reagents were from purchased from Tebu-Bio (Tebu-bio, Barcelona, Spain) and differentiation protocol was done following the manufacturer's instructions. Human adipocytes were maintained in a humidified incubator with 5% CO2 at 37° C. (Sex hormone-binding globulin overexpression protects against high-fat diet-induced obesity in transgenic male mice. Saez-Lopez C, Villena J A, Simo R, Selva D M. J Nutr Biochem. 2020 November; 85:108480. doi: 10.1016/j.jnutbio.2020.108480).
Lipolysis assays were performed using a Lipolysis Kit (Tebu-Bio) following the manufacturer's instructions as previously described.

human mature adipocytes [4] = test: Lipolysis in human mature adipocytes (glycerol production), Example 3; type: cell-based; conditions: Homo sapiens, Adipocyte; 1 μM, 16 h, with respect to controls; read-out: increase of glycerol concentration (lipolysis positive control)
Method: FIG. 4 Mature human subcutaneous adipocytes were treated with vehicle (DMSO), 1 μM of Isoproterenol, Semaglutide (10 nM) or GP6 (25, 50 or 100 μg/ml) for 16 h. Glycerol concentration was assessed using a Lipolysis Assay Kit (Tebu-bio).
as §2
Lipolysis assays were performed using a Lipolysis Kit (Tebu-Bio) following the manufacturer's instructions as previously described by Saez-Lopez and collaborators (Sex hormone-binding globulin overexpression protects against high-fat diet-induced obesity in transgenic male mice. Saez-Lopez C, Villena J A, Simo R, Selva D M. J Nutr Biochem. 2020 November; 85:108480. doi: 10.1016/j.jnutbio.2020.108480.)

[5] = EP 3003351 A1; cited from earlier work

Molecule: CC[C@@H](C)[C@@H](NC(=O)[C@H](NC(=O)CNC(=O)[C@@H](CCC(=O)O)NC(=O)[C@H]1CCCN1C(=O)[C@@H](CC(=O)O)NC(=O)[C@@H](Cc1c[nH]c2ccccc12)NC(=O)[C@H](N)[C@H](C)O)C(C)C)C(=O)N[C@H](Cc1ccccc1)C(=O)N[C@H](Cc1ccc(O)cc1)C(=O)NCC(=O)N[C@H](CC(=O)O)C(=O)N[C@@H](C(=O)N[C@H](CC(N)=O)C(=O)N1CCC[C@@H]1C(=O)N[C@H](CCCCN)C(=O)N[C@H](CC(=O)O)C(=O)N[C@H](CC(=O)O)C(=O)N[C@H](Cc1c[nH]c2ccccc12)C(=O)N[C@H](Cc1ccccc1)C(=O)N[C@H](CCSC)C(=O)N[C@H](CC(C)C)C(=O)NCC(=O)N[C@H](CC(C)C)C(=O)N[C@H](CCCNC(=N)N)C(=O)N[C@H](CC(=O)O)C(=O)NCC(=O)N[C@H](CCCNC(=N)N)C(=O)N1CCC[C@@H]1C(=O)N[C@H](CCC(=O)O)C(=O)O)[C@H](C)O [GP9]
- reduction of Col1A1 mRNA levels induced by TGFβ1 (LX-2 cells): 21%
- fructose-induced expression of ACC (HepG2 cells [1]; 40 μg/ml): able to reduce the expression of ACC and ACLY more effectively than SHBG
- fructose-induced expression of ACLY (HepG2 cells [1]; 40 μg/ml): able to reduce the expression of ACC and ACLY more effectively than SHBG
- fructose-induced expression of FAS (HepG2 cells [1]; 40 μg/ml): had no effect on FAS
- fructose-induced expression of PPARγ (HepG2 cells [1]; 40 μg/ml): increased PPARγ expression
- ATP-Citrate Lyase (ACLY) mRNA levels (HepG2 cells [2]): did not alter
- Acetyl-CoA Carboxylase (ACC) mRNA levels (HepG2 cells [2]): did not alter
- Fatty Acid Synthase (FAS) mRNA levels (HepG2 cells [2]): reduced
- increase of glycerol production (lipolysis) (human mature adipocytes [3]; 10 μM, with respect to control cells): 170%

Molecule: CC(C)NCC(O)c1ccc(O)c(O)c1 (stereo not shown) [isoproterenol, 4-[1-hydroxy-2-(propan-2-ylamino)ethyl]benzene-1,2-diol, reference compound]
- activation at 1 µM (human mature adipocytes [4]): 400%
- activation at 3 µM (human mature adipocytes [3]; Homo sapiens, Adipocyte, 3 μM, with respect to control, read-out: increase of glycerol concentration (lipolysis positive control)): 370%

B1: SHBG: sex hormone-binding globulin (SHBG) protein (protein, UniProt P04278 30-402, looked up)
Sex hormone-binding globulin: LRPVLPTQSAHDPPAVHLSNGPGQEPIAVMTFDLTKITKTSSSFEVRTWDPEGVIFYGDTNPKDDWFMLGLRDGRPEIQLHNHWAQLTVGAGPRLDDGRWHQVEVKMEGDSVLLEVDGEEVLRLRQVSGPLTSKRHPIMRIALGGLLFPASNLRLPLVPALDGCLRRDSWLDKQAEISASAPTSLRSCDVESNPGIFLPPGTQAEFNLRDIPQPHAEPWAFSLDLGLKQAAGSGHLLALGTPENPSWLSLHLQDQKVVLSSGSGPGLDLPLVLGLPLQLKLSMSRVVLSQGSKMKALALPPLGLAPLLNLWAKPQGRLFLGALPGEDSSTSFCLNGLWAQGQRLDVDQALNRSHEIWTHSCPQSPGNGTDASH
- fructose-induced expression of ACC (HepG2 cells [1]; SHBG 20 nM): able to reduce
- fructose-induced expression of ACLY (HepG2 cells [1]; SHBG 20 nM): able to reduce
- fructose-induced expression of FAS (HepG2 cells [1]; SHBG 20 nM): able to reduce
- fructose-induced expression of PPARγ (HepG2 cells [1]; SHBG 20 nM): able to reduce
- lipolytic and anti-lipogenic activity [5]: has lipolytic and anti-lipogenic activity
